Measured values published in ChEMBL document CHEMBL5291721, “A preclinical secondary pharmacology resource illuminates target-adverse drug reaction associations of marketed drugs” (Nat Commun, 2023).

What was measured:
[1] = target: T1, 5-hydroxytryptamine receptor 2C (Homo sapiens, UniProt P28335)
T1 sequence (P28335 whole entry): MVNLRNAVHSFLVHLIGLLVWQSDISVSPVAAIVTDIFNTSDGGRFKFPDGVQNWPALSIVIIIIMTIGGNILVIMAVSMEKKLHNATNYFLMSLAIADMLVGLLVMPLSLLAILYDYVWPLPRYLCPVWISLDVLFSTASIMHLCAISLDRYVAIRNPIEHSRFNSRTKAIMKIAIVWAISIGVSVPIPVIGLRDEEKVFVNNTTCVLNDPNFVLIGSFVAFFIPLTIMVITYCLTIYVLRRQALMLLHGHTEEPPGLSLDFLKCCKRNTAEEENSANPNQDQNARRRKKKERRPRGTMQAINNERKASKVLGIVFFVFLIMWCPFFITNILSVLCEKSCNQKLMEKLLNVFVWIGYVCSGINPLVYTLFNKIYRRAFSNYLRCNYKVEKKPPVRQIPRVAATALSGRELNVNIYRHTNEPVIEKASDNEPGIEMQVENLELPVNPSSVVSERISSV

[2] = target: Growth hormone secretagogue receptor type 1 (Homo sapiens, UniProt Q92847)
Sequence of Growth hormone secretagogue receptor type 1 (Q92847 whole entry): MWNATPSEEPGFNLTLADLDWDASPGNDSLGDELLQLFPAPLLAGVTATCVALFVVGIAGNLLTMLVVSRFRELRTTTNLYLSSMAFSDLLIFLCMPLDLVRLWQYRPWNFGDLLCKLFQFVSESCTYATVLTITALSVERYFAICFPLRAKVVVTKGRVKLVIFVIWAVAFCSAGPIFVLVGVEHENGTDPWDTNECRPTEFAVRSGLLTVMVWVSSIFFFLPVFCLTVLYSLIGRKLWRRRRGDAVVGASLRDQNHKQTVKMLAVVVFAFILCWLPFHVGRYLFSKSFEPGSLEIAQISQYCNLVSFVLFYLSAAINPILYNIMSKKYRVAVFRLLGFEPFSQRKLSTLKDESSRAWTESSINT

Thromboxane A2 receptor = target: T2, Thromboxane A2 receptor (Homo sapiens, UniProt P21731)
T2 sequence (P21731 whole entry): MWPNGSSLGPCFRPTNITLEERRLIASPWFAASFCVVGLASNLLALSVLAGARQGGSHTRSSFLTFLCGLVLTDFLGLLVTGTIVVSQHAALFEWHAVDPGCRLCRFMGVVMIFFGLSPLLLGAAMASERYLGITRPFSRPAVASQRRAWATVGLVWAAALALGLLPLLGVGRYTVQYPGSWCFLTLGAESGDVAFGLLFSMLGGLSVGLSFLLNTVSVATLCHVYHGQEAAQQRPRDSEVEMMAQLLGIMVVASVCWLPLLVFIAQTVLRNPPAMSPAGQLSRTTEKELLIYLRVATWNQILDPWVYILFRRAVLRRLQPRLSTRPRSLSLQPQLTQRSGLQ

[3] = target: Beta-2 adrenergic receptor (Homo sapiens, UniProt P07550)
Sequence of Beta-2 adrenergic receptor (P07550 whole entry): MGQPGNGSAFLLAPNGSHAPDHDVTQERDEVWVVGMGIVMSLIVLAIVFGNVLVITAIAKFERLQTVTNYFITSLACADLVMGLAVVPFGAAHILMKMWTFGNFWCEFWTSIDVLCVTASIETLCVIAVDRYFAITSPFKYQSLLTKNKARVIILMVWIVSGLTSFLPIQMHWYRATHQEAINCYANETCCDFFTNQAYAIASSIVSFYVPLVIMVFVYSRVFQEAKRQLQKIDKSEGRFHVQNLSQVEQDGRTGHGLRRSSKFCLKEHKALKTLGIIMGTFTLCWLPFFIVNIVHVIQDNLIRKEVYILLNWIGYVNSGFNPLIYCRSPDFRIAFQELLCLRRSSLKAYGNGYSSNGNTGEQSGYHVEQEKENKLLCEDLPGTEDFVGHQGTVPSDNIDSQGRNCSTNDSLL

[4] = target: T3, Alpha-2B adrenergic receptor (Homo sapiens, UniProt P18089)
T3 sequence (P18089 whole entry): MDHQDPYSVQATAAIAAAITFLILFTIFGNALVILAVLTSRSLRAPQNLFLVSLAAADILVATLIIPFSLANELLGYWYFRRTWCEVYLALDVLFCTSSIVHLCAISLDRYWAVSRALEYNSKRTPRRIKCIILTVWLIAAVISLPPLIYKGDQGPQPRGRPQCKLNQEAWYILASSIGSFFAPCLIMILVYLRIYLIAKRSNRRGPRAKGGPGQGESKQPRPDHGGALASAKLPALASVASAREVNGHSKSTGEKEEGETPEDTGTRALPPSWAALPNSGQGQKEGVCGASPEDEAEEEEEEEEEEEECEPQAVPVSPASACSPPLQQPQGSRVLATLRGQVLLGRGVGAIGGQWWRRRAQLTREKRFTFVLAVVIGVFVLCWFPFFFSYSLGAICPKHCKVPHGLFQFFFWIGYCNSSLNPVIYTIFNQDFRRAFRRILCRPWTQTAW

[5] = target: Beta-1 adrenergic receptor (Homo sapiens, UniProt P08588); format: functional
Sequence of Beta-1 adrenergic receptor (P08588 whole entry): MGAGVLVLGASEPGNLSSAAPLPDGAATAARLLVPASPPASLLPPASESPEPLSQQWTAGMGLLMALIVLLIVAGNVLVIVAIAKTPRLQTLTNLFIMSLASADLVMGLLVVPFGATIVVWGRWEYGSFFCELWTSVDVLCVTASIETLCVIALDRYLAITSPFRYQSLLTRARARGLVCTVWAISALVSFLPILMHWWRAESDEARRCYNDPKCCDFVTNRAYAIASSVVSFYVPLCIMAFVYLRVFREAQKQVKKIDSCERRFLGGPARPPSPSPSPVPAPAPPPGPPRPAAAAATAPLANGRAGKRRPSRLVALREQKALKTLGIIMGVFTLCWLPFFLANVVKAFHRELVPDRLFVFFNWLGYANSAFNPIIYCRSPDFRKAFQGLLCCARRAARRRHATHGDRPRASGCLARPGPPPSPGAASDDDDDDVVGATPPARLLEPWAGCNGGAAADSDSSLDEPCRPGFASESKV

[6] = target: Gamma-aminobutyric acid receptor subunit alpha-1 (Rattus norvegicus, UniProt P62813)
Sequence of Gamma-aminobutyric acid receptor subunit alpha-1 (P62813 whole entry): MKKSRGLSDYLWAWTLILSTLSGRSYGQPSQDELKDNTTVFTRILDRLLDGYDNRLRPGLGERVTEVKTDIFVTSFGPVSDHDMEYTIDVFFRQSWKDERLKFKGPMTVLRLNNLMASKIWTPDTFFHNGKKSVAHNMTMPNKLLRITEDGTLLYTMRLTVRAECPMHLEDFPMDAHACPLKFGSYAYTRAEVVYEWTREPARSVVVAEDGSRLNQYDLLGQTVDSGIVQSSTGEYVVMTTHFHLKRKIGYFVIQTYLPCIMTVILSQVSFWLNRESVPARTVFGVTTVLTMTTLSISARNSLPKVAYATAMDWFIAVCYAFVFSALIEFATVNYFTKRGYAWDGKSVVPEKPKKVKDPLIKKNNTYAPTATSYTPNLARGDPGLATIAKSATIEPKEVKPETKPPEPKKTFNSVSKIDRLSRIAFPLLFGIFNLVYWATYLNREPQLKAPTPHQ

[7] = target: Sodium-dependent dopamine transporter (Homo sapiens, UniProt Q01959)
Sequence of Sodium-dependent dopamine transporter (Q01959 whole entry): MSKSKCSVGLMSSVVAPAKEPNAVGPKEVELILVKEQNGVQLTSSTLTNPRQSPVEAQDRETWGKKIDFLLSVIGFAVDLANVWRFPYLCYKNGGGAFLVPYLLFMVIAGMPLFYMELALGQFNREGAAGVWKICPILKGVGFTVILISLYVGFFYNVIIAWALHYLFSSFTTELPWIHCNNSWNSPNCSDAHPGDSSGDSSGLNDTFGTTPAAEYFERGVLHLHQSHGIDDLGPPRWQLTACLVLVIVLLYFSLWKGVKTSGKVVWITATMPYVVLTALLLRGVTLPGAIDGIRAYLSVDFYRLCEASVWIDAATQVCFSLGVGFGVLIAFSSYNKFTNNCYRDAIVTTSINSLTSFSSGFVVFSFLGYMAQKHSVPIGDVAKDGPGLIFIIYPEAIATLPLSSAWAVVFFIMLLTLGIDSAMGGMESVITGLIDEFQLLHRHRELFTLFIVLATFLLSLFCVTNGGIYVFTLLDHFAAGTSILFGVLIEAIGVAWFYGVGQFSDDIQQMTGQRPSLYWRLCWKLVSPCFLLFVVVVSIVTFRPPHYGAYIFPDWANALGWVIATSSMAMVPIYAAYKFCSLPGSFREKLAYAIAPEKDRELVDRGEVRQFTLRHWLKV

Progesterone receptor = target: T4, Progesterone receptor (Homo sapiens, UniProt P06401); format: functional
T4 sequence (P06401 whole entry): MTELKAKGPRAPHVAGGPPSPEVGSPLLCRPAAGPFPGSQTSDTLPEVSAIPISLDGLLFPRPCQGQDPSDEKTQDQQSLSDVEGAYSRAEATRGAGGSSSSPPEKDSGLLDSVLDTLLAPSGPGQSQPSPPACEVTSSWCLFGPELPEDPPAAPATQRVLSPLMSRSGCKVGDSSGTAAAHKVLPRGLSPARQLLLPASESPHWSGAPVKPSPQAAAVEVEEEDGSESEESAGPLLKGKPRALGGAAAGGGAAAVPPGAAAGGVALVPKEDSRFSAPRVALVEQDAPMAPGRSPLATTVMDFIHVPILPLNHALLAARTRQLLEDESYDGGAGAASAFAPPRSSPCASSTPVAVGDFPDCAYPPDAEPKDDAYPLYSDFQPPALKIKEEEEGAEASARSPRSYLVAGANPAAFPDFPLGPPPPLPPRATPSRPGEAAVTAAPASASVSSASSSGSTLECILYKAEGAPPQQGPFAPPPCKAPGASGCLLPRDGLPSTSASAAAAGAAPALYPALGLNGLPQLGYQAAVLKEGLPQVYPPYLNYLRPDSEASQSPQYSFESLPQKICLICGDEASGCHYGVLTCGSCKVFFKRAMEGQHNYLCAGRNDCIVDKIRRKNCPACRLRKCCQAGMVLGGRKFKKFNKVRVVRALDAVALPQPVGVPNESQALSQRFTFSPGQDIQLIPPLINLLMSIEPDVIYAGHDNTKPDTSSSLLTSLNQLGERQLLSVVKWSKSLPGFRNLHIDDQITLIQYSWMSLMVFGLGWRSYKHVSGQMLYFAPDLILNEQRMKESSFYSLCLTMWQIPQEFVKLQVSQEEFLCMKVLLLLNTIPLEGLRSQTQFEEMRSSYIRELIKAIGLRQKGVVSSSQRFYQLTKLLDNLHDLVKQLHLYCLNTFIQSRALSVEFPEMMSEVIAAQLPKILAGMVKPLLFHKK

Histamine H2 receptor = Histamine H2 receptor (Homo sapiens, UniProt P25021); format: functional, cell-based
Sequence of Histamine H2 receptor (P25021 whole entry): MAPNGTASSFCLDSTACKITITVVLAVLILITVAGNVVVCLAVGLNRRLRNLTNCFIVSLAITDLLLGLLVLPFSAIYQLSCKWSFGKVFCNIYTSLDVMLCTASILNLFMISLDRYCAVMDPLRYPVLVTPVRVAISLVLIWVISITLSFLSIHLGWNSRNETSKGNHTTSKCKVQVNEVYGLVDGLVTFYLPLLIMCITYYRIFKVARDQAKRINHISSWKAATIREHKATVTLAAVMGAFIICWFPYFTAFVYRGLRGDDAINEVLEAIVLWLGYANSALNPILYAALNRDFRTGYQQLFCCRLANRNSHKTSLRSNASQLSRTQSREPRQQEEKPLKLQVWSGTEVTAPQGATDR
Also: assay procedure not described here.

| SMILES | AC50 [1] [µM] | AC50 [2] [µM] | AC50 (Thromboxane A2 receptor) [µM] | AC50 [3] [µM] | AC50 [4] [µM] | AC50 [5] [µM] | AC50 [6] [µM] | AC50 [7] [µM] | AC50 (Progesterone receptor) [µM] | AC50 (Histamine H2 receptor) [µM] |
| --- | --- | --- | --- | --- | --- | --- | --- | --- | --- | --- |
| O=C(O)COCCN1CCN(C(c2ccccc2)c2ccc(Cl)cc2)CC1 (stereo not given) [CETIRIZINE] | > 30 | > 30 | > 30 | > 10 | > 10 | > 10 | – | – | – | – |
| OC[C@H]1O[C@@H](n2cnc3c2NC=NC[C@H]3O)C[C@@H]1O [PENTOSTATIN] | > 10 | > 30 | – | – | > 30 | > 30 | > 30 | > 30 | > 30 | > 30 |
| CCCN1CC(NS(=O)(=O)N(CC)CC)CC2Cc3c(O)cccc3CC21 (stereo not given) [QUINAGOLIDE] | > 30 | > 30 | > 30 | > 30 | 11 | > 30 | > 30 | > 30 | > 30 | > 30 |
| COC(=O)C1=C(C)NC(C)=C(C(=O)OCCN2CCN(C(c3ccccc3)c3ccccc3)CC2)C1c1cccc([N+](=O)[O-])c1 (stereo not given) [MANIDIPINE 6300] | > 30 | > 30 | > 30 | > 30 | > 30 | > 30 | > 30 | 23 | – | > 30 |
| CN(C)C/C=C/C(=O)Nc1cc2c(Nc3ccc(F)c(Cl)c3)ncnc2cc1O[C@H]1CCOC1 [AFATINIB] | > 30 | > 30 | – | – | 0.87 | > 30 | > 30 | 23.2 | > 30 | > 30 |
| CCOC(=O)c1c(CSc2ccccc2)n(C)c2cc(Br)c(O)c(CN(C)C)c12 [UMIFENOVIR] | 2.6 | > 30 | > 30 | > 30 | 26 | > 30 | > 30 | 9.1 | > 30 | > 30 |
| C[C@]12CCC(=O)C[C@@H]1CC[C@@H]1[C@@H]2CC[C@]2(C)[C@@H](O)CC[C@@H]12 [STANOLONE] | > 30 | > 30 | > 30 | > 30 | – | > 30 | > 30 | > 30 | – | > 30 |
| O=C1c2cccc3c2[C@H](CCC3)CN1[C@@H]1CN2CCC1CC2 [PALONOSETRON] | > 30 | > 30 | > 30 | > 30 | > 30 | > 30 | > 30 | > 30 | > 30 | > 30 |
| C[N+](C)(C)CCOP(=O)([O-])OC[C@H](O)CO | > 30 | > 30 | > 30 | > 30 | – | > 30 | > 30 | > 30 | > 30 | > 30 |
| Cc1cccc(C)c1NC(=O)CC12CCCN1CCC2 [PILSICAINIDE] | > 30 | > 30 | > 30 | > 30 | > 30 | > 30 | > 30 | > 30 | > 30 | > 30 |
| CCOC(=O)C1=C(C)NC(C)=C(C(=O)OCC)C1c1ccccc1/C=C/C(=O)OC(C)(C)C [LACIDIPINE] | > 30 | > 30 | > 30 | > 30 | – | > 30 | > 30 | > 30 | 29 | > 30 |
| O=C1OC(OC(=O)c2cccnc2Nc2cccc(C(F)(F)F)c2)c2ccccc21 (stereo not given) [TALNIFLUMATE] | > 30 | > 30 | > 30 | – | > 30 | > 30 | > 30 | > 30 | > 30 | > 30 |
| CN[C@]1(c2ccccc2Cl)CCCCC1=O [ESKETAMINE] | > 30 | > 30 | > 30 | > 30 | – | > 30 | > 30 | > 30 | > 30 | > 30 |
